Results on twelve compounds are retold here after PubChem BioAssay (NCI).

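Where inhibition never reached the appropriate level, the endpoint shown equals the highest concentration tested. Otherwise, values were interpolated linearly from a five-concentration, 48-hour dose response in 96-well plates. GI50: concentration for 50% inhibition of growth. TGI: concentration producing complete growth inhibition.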

Holding throughout (assay): growth of human tumour cells (NCI), 48 h
Assay [1] concerns HS 578T breast.
The test system of assay [2] is BT-549 breast.
The test system of assay [3] is MCF7 breast.
Assay [4] relates to DU-145 prostate.
Assay [5] deals with MDA-MB-435.
For assay [6], the system named is NCI/ADR-RES ovarian.

Turning to `Fc1ccc(-c2c(-c3ccncc3)n(CCN3CCOCC3)c3cccnc23)cc1`, the GI50 in assay [1], in assay [2], in assay [3], in assay [4], in assay [5] and in assay [6] was > 25 µM in each case. Also, the TGI in assay [1], in assay [2], in assay [3], in assay [4], in assay [5] and in assay [6] was > 25 µM throughout.

Regarding `O=C(N/N=C\c1cc(Cl)ccc1O)N/N=C/c1cc(Cl)ccc1O`, the GI50 was 0.643 µM in assay [1]; > 100 µM in assay [2]; 3.12 µM in assay [3]; > 100 µM in assay [4]; 1.36 µM in assay [5]; 2.48 µM in assay [6]. Further, the TGI in assay [1], in assay [2], in assay [3], in assay [4], in assay [5] and in assay [6] was > 100 µM throughout.

Turning to `CN1C=CN(Cc2ccc(-c3ccccn3)nc2)[CH-]1.CN1C=CN(Cc2ccc(-c3ccccn3)nc2)[CH-]1.[Au+3]`, the GI50 in assay [1] was > 40.6 µM; in assay [2] it was 2.46 µM; in assay [3], 0.314 µM; in assay [4], 4.16 µM; in assay [5], 2.97 µM; in assay [6] it was > 70.8 µM. The TGI in assay [1] is > 100 µM; in assay [2], 20.1 µM; in assay [3], 12.2 µM; in assay [4], 36.8 µM; in assay [5], 20.9 µM; in assay [6], > 100 µM.

For the compound `COc1cc(SC)ccc1C(=O)N1CCCC(C)C1` (configuration not stated), the GI50 in assay [1] was > 100 µM; in assay [2] it was > 100 µM; in assay [3], 79 µM; in assay [4], > 100 µM; in assay [5], > 100 µM; in assay [6], 70.6 µM. In addition, the TGI in assay [1], in assay [2], in assay [3], in assay [4], in assay [5] and in assay [6] was > 100 µM each time.

As to `Cc1[nH]nc(C(=O)N/N=C/c2cccs2)c1N=NN(C)C`, the TGI in assay [1] was > 100 µM; in assay [2] it was 27.3 µM; in assay [3] it was 47.4 µM; in assay [4], > 100 µM; in assay [5], 57 µM; in assay [6] it was > 100 µM.

Take `NC(=NC1C2CC3CC(C2)CC1C3)Nc1ccc(I)cc1` (configuration not stated): the GI50 in assay [1] was 4.65 µM; in assay [2], 3.33 µM; in assay [3], 2.45 µM; in assay [4] it was 3.66 µM; in assay [5] it was 3.8 µM; in assay [6] it was 4.59 µM. Besides, the TGI came to 25.2 µM in assay [1]; 12.8 µM in assay [2]; 10.7 µM in assay [3]; 12.6 µM in assay [4]; 13.6 µM in assay [5]; 17.1 µM in assay [6].

On to `COc1cc([N+](=O)[O-])c2ncccc2c1O`, for which the GI50 in assay [1] is 2.74 µM; in assay [2], 21.2 µM; in assay [3] it was 2.96 µM; in assay [4], 2.32 µM; in assay [5], 3.53 µM; in assay [6] it was 13.3 µM. For the same compound, the TGI in assay [1] was 27.3 µM; in assay [2], 87.3 µM; in assay [3] it was > 100 µM; in assay [4], 5.73 µM; in assay [5], 14.8 µM; in assay [6] it was 86.9 µM.

As for `CC(=O)OCC1OC(O[C@@H]2C[C@H]3C(C)(C)[C@H](OC(C)=O)CC[C@]3(C)[C@H]3CC[C@@H]4[C@]5(CC[C@@]4(C)[C@@]32C)O[C@@H]([C@H](O)C(C)(C)O)C[C@@H]5C)C(O)C(O)C1O` (some centres not stated), the GI50 in assay [1] is 9.3 µM; in assay [2] it was 12.1 µM; in assay [3], 1.06 µM; in assay [4], 10.6 µM; in assay [5], 8.36 µM; in assay [6], 16.4 µM. Also, the TGI in assay [1] is 25.4 µM; in assay [2], 24.5 µM; in assay [3], 6.03 µM; in assay [4], 22.8 µM; in assay [5], 22.4 µM; in assay [6] it was 31.1 µM.

For the compound `COc1cc(C(=O)c2c(-c3ccccc3)oc3ccccc23)cc(OC)c1O`, the GI50 was 0.898 µM in assay [1]; 1.39 µM in assay [2]; 0.399 µM in assay [3]; 3.15 µM in assay [4]; 0.285 µM in assay [5]; 0.876 µM in assay [6]. For the same compound, the TGI came out at 8.47 µM in assay [1]; 7.82 µM in assay [2]; 16 µM in assay [3]; 13.6 µM in assay [4]; 0.777 µM in assay [5]; 20 µM in assay [6].

For `CC(C)(CN1CCCCC1)C(=O)CC(SCCS(=O)(=O)O)c1ccc(Cl)c(Cl)c1` (configuration not stated), the TGI in assay [1] was 7 µM; in assay [2], 13 µM; in assay [3], 15.3 µM; in assay [4], 23.4 µM; in assay [5], 4.57 µM; in assay [6], 22.9 µM.

In the case of `CCOc1ccc(N2C(N)=NC(N)=NC2(C)C)cc1`, the GI50 in assay [1] is > 100 µM; in assay [2] it was 84.3 µM; in assay [3] it was > 100 µM; in assay [4] it was 71.9 µM; in assay [5], 38.8 µM; in assay [6], > 100 µM. Further, the TGI in assay [1], in assay [2], in assay [3], in assay [4], in assay [5] and in assay [6] was > 100 µM in each case.

Take `CCN(CC)c1ccc(/C=N\NC(=O)c2cccc(Nc3ccnc(C(F)(F)F)c3)c2)c(O)c1`: the GI50 in assay [1] is 0.374 µM; in assay [2], 0.427 µM; in assay [3] it was 0.296 µM; in assay [4] it was 0.159 µM; in assay [5], 0.412 µM; in assay [6], 0.765 µM. Besides, the TGI in assay [1] was 11.6 µM; in assay [2], > 65.1 µM; in assay [3], > 100 µM; in assay [4], > 100 µM; in assay [5] it was > 24.1 µM; in assay [6] it was > 28.1 µM.
